pIC50: −log10 of the molar value.

The results in this text go back to ChEMBL document CHEMBL4507319 (2021).

Test [1] deals with Tyrosine-protein kinase ABL2 (Homo sapiens) (UniProt P42684). Put plainly: Arg(h) Eurofins kinase panel. The following applies: Compound concentration 1.0 uM.
For test [2], the target named is Tyrosine-protein kinase Blk (Homo sapiens) (UniProt P51451). Put plainly: Blk(h) Eurofins kinase panel. The following applies: Compound concentration 1.0 uM.
In test [3] the target is Cyclin-dependent kinase 1/cyclin B (Homo sapiens) (UniProt P06493+P14635+Q8WWL7+O95067). The experiment in a line: CDK1/cyclinB(h) Eurofins kinase panel. The following applies: Compound concentration 1.0 uM. The class given is protein-complex assay.
Test [4] concerns the target CDK4/Cyclin D3 (Homo sapiens) (UniProt P11802+P30281). The experiment in a line: CDK4/cyclinD3(h) Eurofins kinase panel. Format: protein-complex assay. The following applies: Compound concentration 1.0 uM.
Test [5] concerns the target Transient receptor potential cation channel subfamily M member 7 (Homo sapiens) (UniProt Q96QT4). The experiment in a line: ChaK1(h) Eurofins kinase panel. The following applies: Compound concentration 1.0 uM.
Test [6] concerns the target T1, Myotonin-protein kinase (Homo sapiens) (UniProt Q09013).
T1 sequence (whole entry): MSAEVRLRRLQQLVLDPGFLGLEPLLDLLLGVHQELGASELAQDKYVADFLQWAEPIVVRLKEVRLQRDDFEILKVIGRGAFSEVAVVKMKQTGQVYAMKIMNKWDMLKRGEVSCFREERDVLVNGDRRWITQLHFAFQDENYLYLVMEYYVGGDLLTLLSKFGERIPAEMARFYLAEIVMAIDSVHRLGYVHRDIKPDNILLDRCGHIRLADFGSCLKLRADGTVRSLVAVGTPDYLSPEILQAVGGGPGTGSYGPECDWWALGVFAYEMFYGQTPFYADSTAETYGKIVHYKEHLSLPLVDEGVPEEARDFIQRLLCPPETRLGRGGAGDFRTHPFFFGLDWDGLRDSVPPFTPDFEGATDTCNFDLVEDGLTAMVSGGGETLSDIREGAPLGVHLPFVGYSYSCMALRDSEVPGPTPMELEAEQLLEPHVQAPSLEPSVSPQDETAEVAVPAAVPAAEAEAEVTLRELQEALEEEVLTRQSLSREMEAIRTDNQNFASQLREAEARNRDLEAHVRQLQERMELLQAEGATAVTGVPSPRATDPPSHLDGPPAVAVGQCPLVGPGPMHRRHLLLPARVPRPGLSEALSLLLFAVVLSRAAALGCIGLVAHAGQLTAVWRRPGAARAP
The experiment in a line: DMPK(h) Eurofins kinase panel. The following applies: Compound concentration 1.0 uM.

Test [7] concerns the target Glycogen synthase kinase-3 beta (Homo sapiens) (UniProt P49841). Put plainly: GSK3β(h) Eurofins kinase panel. The following applies: Compound concentration 1.0 uM.
The target of test [8] is Mitogen-activated protein kinase 9 (Homo sapiens) (UniProt P45984). Put plainly: JNK2alpha2(h) Eurofins kinase panel. The following applies: Compound concentration 1.0 uM.
The target of test [9] is Mitogen-activated protein kinase kinase kinase kinase 5 (Homo sapiens) (UniProt Q9Y4K4). Put plainly: MAP4K5(h) Eurofins kinase panel. The following applies: Compound concentration 1.0 uM.
Mitogen-activated protein kinase kinase kinase kinase 5 (Homo sapiens), sequence (Q9Y4K4 whole entry, looked up): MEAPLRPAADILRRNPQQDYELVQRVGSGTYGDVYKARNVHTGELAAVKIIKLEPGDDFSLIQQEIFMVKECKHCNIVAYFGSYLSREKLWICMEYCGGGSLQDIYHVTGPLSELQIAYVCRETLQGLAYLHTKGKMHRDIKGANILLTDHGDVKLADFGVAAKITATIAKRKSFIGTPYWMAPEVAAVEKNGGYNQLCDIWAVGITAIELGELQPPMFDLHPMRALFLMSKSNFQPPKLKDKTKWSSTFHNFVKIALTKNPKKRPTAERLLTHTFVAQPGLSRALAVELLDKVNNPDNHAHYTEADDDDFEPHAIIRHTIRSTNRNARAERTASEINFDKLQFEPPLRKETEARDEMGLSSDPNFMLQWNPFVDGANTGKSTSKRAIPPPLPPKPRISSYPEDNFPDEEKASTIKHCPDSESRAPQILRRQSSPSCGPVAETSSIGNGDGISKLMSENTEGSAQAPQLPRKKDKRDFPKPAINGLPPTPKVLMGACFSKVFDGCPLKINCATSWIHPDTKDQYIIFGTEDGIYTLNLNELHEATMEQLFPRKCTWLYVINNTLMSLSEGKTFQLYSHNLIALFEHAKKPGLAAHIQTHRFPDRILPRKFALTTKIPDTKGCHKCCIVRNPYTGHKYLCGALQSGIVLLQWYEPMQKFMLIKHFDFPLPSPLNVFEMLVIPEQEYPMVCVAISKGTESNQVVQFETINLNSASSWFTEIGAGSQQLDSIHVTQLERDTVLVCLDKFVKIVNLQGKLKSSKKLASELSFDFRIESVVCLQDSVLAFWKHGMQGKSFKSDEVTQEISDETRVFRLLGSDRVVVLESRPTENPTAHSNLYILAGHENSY
The target in test [10] is Serine/threonine-protein kinase MARK1 (Homo sapiens) (UniProt Q9P0L2). Put plainly: MARK1(h) Eurofins kinase panel. The following applies: Compound concentration 1.0 uM.
Test [11] has as its target mTOR/FKBP12A/FKBP12B (Homo sapiens) (UniProt P62942+P68106+P42345). Put plainly: mTOR/FKBP12(h) Eurofins kinase panel. Format: protein-complex assay. The following applies: Compound concentration 1.0 uM.
In test [12] the target is Serine/threonine-protein kinase PAK 6 (Homo sapiens) (UniProt Q9NQU5). Put plainly: PAK6(h) Eurofins kinase panel. The following applies: Compound concentration 1.0 uM.
Serine/threonine-protein kinase PAK 6 (Homo sapiens), sequence (Q9NQU5 whole entry, looked up): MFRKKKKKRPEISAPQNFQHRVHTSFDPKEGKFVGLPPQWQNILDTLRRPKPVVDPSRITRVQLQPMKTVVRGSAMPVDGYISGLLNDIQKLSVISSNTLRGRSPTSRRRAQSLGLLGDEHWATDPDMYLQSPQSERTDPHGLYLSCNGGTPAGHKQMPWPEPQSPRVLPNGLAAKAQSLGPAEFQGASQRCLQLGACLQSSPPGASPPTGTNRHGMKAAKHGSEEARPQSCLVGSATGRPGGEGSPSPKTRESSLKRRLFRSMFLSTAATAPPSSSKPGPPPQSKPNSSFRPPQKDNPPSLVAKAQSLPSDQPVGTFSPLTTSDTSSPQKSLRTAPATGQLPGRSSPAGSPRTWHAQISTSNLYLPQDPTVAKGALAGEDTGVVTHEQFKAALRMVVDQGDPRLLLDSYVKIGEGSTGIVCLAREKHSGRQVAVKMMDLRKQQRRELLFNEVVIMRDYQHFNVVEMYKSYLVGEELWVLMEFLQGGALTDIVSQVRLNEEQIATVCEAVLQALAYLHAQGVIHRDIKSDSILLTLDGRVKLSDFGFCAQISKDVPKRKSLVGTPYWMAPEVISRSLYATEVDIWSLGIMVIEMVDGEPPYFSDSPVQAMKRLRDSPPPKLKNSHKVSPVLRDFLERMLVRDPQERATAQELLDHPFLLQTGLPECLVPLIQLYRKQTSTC
Test [13] deals with [Pyruvate dehydrogenase (acetyl-transferring)] kinase isozyme 4, mitochondrial (Homo sapiens) (UniProt Q16654). The experiment in a line: PDHK4(h) Eurofins kinase panel. The following applies: Compound concentration 1.0 uM.
[Pyruvate dehydrogenase (acetyl-transferring)] kinase isozyme 4, mitochondrial (Homo sapiens), sequence (Q16654 whole entry, looked up): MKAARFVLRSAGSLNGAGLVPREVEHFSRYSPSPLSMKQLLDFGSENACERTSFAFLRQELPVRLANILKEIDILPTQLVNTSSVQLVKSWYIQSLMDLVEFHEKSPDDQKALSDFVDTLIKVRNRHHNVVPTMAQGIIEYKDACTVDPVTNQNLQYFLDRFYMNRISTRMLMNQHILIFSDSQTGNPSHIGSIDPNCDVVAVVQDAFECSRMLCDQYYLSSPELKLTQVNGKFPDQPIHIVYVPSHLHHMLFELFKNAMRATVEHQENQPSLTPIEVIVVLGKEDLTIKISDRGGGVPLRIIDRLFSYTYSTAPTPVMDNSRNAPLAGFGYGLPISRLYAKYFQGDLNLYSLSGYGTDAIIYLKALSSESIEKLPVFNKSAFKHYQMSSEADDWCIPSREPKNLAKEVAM
The target in test [14] is cAMP-dependent protein kinase catalytic subunit alpha (Homo sapiens) (UniProt P17612). The experiment in a line: PKA(h) Eurofins kinase panel. The following applies: Compound concentration 1.0 uM.
Test [15] has as its target Serine/threonine-protein kinase PLK1 (Homo sapiens) (UniProt P53350). Put plainly: Plk1(h) Eurofins kinase panel. The following applies: Compound concentration 1.0 uM.
The target of test [16] is T2, cAMP-dependent protein kinase catalytic subunit PRKX (Homo sapiens) (UniProt P51817).
T2 sequence (whole entry): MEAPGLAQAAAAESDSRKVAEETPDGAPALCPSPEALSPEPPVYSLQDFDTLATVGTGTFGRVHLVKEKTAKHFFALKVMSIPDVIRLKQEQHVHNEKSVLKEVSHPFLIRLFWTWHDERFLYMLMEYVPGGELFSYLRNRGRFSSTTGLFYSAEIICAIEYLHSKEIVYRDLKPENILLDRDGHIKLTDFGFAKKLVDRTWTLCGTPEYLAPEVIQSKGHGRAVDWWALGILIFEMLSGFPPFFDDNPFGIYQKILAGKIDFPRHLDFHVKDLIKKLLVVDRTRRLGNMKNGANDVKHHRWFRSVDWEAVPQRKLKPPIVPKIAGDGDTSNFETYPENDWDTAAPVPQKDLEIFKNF
Put plainly: PrKX(h) Eurofins kinase panel. The following applies: Compound concentration 1.0 uM.

The target of test [17] is Serine/threonine-protein kinase 33 (Homo sapiens) (UniProt Q9BYT3). Put plainly: STK33(h) Eurofins kinase panel. The following applies: Compound concentration 1.0 uM.
Test [18] addresses Angiopoietin-1 receptor (Homo sapiens) (UniProt Q02763). Put plainly: Tie2 (h) Eurofins kinase panel. The following applies: Compound concentration 1.0 uM.
For test [19], the target named is High affinity nerve growth factor receptor (Homo sapiens) (UniProt P04629). Put plainly: TrkA(h) Eurofins kinase panel. The following applies: Compound concentration 1.0 uM.
High affinity nerve growth factor receptor (Homo sapiens), sequence (P04629 33-796 limits assumed): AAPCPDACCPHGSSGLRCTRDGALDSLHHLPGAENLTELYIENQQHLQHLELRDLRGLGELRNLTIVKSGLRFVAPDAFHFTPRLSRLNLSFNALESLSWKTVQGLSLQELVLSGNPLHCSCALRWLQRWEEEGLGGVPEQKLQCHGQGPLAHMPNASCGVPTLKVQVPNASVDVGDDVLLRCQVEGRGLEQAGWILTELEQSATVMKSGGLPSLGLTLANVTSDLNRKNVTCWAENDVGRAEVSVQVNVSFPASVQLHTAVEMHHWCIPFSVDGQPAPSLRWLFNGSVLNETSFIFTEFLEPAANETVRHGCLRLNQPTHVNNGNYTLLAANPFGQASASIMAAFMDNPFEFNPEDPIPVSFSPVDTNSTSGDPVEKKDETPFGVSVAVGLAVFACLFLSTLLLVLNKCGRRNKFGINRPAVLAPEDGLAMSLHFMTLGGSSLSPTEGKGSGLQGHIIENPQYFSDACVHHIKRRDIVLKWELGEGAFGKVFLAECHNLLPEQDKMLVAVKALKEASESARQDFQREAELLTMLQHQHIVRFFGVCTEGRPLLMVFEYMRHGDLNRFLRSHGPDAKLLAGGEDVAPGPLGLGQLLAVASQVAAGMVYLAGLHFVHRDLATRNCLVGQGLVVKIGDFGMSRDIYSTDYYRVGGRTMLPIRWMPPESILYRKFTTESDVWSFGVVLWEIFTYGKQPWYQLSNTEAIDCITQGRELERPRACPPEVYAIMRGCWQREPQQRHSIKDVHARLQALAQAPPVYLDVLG
The target in test [20] is PI3-kinase p110-delta/p85-alpha (Homo sapiens) (UniProt P27986+O00329). The experiment in a line: PI3 Kinase(p110d/p85a)(h) Eurofins kinase panel. The class given is protein-complex assay. The following applies: Compound concentration 1.0 uM.
Test [21] deals with Phosphatidylinositol 4-phosphate 3-kinase C2 domain-containing subunit alpha (Homo sapiens) (UniProt O00443). The experiment in a line: PI3KC2a(h) Eurofins kinase panel. The following applies: Compound concentration 1.0 uM.
The test system of test [22] is IMR-5/75. The experiment in a line: IMR-5/75 cell line Proliferation assay. Format: functional, Homo sapiens. The following applies: time 6 day.
For test [23], the target named is Ribosomal protein S6 kinase alpha-2 (Homo sapiens, UniProt Q15349).
Ribosomal protein S6 kinase alpha-2, sequence (Q15349 whole entry): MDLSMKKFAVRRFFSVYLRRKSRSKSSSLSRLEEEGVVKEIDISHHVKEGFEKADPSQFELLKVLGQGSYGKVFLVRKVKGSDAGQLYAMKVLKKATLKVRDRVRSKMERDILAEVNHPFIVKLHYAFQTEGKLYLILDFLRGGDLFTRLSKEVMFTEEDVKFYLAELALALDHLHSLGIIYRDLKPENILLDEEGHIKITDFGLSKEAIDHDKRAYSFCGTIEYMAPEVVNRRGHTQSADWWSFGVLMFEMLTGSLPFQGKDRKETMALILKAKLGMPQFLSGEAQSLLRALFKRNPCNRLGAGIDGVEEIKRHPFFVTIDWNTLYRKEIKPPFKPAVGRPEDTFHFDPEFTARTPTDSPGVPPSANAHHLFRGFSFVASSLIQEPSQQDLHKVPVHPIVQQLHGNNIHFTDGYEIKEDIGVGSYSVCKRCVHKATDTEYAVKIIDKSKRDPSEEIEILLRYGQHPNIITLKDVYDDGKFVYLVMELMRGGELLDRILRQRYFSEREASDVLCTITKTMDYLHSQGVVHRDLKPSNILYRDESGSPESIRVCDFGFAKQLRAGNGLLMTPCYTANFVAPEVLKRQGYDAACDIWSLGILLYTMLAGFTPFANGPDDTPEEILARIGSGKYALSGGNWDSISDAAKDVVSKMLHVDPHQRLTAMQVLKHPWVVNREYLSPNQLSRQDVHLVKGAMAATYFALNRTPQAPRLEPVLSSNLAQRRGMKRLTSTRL

Serine/threonine-protein kinase PLK1 (Homo sapiens), sequence (P53350 whole entry): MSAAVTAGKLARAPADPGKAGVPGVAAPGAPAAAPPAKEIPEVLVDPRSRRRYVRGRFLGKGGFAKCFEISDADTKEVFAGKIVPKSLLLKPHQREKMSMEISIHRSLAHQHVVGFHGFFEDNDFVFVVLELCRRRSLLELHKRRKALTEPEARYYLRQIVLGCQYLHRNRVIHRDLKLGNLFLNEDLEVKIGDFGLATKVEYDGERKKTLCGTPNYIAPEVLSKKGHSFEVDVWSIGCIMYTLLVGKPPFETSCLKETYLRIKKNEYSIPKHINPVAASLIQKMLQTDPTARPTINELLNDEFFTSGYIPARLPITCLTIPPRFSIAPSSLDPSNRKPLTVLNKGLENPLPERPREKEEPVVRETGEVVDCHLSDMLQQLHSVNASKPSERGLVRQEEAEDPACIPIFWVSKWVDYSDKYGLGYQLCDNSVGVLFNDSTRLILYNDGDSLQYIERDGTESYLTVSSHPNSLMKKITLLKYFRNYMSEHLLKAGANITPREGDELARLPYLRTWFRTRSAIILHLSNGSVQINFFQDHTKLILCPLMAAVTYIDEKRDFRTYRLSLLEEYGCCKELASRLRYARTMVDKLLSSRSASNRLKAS
Glycogen synthase kinase-3 beta (Homo sapiens), sequence (P49841 whole entry, looked up): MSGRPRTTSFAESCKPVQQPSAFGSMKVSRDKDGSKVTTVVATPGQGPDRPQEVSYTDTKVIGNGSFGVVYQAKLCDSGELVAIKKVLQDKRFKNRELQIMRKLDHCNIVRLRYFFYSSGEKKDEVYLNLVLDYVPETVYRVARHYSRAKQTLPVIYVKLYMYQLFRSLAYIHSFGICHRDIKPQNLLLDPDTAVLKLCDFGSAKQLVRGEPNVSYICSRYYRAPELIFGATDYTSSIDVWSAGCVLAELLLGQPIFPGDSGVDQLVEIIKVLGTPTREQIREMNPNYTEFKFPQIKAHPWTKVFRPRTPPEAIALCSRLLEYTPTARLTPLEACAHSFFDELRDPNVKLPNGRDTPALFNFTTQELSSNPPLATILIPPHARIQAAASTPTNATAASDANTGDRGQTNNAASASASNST
Tyrosine-protein kinase Blk (Homo sapiens), sequence (P51451 2-505 limits assumed): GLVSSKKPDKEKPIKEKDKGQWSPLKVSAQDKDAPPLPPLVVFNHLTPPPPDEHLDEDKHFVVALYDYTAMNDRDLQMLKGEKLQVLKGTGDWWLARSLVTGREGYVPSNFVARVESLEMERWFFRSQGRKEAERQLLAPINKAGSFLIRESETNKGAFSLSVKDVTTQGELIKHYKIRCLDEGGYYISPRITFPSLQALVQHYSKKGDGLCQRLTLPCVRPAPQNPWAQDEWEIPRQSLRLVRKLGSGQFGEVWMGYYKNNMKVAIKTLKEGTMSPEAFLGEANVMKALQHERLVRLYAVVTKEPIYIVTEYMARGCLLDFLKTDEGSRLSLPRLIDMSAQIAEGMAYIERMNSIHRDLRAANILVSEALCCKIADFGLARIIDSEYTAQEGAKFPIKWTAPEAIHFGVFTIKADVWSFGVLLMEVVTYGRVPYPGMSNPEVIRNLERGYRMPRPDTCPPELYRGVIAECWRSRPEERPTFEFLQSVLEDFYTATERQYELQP

As a reminder, the pIC50 is the IC50 on a negative log10 scale, so that one unit is a factor of ten. A lower pIC50 goes with a high IC50. In the case of `CCc1ccccc1C(=O)Nc1n[nH]c2c(C)c(F)c(C3C(C#N)=C(C)N(C)C(C)=C3C#N)cc12` [BAY-3827], the % residual kinase activity in test [1] is 101%; in [2], 111%; in test [3], 98%; in test [4], 112%; in [5], 100%; in test [6] it was 91%. Besides, the % residual kinase activity is 58% in test [7]; 88% in [8]; 95% in test [9]; 66% in [10]; 98% in test [11]; 86% in test [12]. For the same compound, the % residual kinase activity in [13] is 101%; in [14] it was 103%; in test [15], 102%; in [16] it was 94%; in test [17] it was 55%; in test [18] it was 81%. The values for the % residual kinase activity in test [19], in test [20] and in [21] were 60%, 103% and 103%, respectively. Also, the “Cell Proliferation IC50” value in test [22] is 21300 nM. Besides, in test [23], the pIC50 is 7.62.
